Literature values, collected in patent US6017948A, “Water-miscible pharmaceutical compositions” (Supergen, Inc., priority 1998, dated 2000).

What was measured:
breast cancer = settings: single-agent phase II
[1] = system: previously untreated non-small-cell lung cancer; settings: single-agent phase II
head and neck cancer = settings: single-agent phase II
[2] = system: refractory ovarian cancer; settings: single-agent phase II
animals = settings: chronic high doses (more than 100 mg/kg)

SMILES	effect on tubulin polymer / microtubule assembly (tubulin polymer)	response rates (complete and partial) (breast cancer)	response rates (complete and partial) [1]	response rates (complete and partial) (head and neck cancer)	response rates (complete and partial) [2]	toxic effects (animals)
CC(=O)O[C@H]1C(=O)[C@@]2(C)[C@H]([C@H](OC(=O)c3ccccc3)[C@]3(O)C[C@H](OC(=O)[C@H](O)[C@@H](NC(=O)c4ccccc4)c4ccccc4)C(C)=C1C3(C)C)[C@]1(OC(C)=O)CO[C@@H]1C[C@@H]2O [paclitaxel]	stabilizes the tubulin polymer and promotes microtubule assembly	Encouraging response rates	Encouraging response rates	Encouraging response rates	Encouraging response rates	–
CCCCC(CC)COC(=O)c1ccccc1C(=O)OCC(CC)CCCC (stereo not drawn) [DEHP, diethylhexylphthalate]	–	–	–	–	–	growth retardation, liver weight increase, liver damage, testicular atrophy, teratogenicity, and carcinogenicity
